The target in the assay is T1, Serratia marcescens Sr41 (FERM BP-No. 487) esterase, purified esterase of Example 2 (Serratia marcescens, UniProt Q59932).
T1 construct: 62 kDa by SDS-PAGE; N-terminus XIFSYKDLDENA
T1 sequence (Q59932 2-613): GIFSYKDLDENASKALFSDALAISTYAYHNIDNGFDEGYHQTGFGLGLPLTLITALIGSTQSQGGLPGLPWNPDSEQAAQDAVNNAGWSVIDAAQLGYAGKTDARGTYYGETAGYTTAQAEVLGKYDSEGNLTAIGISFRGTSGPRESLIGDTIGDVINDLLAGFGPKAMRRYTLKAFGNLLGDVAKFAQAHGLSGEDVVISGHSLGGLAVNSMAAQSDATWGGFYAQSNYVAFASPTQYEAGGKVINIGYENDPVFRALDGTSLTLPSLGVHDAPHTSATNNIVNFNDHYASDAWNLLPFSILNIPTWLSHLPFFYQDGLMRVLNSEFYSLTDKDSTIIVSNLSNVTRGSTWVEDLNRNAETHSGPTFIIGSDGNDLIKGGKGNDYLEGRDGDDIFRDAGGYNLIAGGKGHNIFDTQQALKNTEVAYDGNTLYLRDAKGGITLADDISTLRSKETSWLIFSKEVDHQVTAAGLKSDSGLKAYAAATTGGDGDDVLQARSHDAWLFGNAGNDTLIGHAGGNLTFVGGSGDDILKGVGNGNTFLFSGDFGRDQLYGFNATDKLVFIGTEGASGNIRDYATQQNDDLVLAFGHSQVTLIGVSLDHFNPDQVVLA
Put plainly: biochemical. The settings on record: for Relative activity: 1 mM inhibitor added to enzyme solution, activity with no addition = 100, olive oil substrate, pH 8.0, 37° C. How it is done:
A mixture of 225 ml of 2% polyvinyl alcohol (Poval 117, manufactured by Kurare Co., Ltd.) and 75 ml of olive oil was emulsified by stirring at 14,500 rpm at 5°-10° C. for 10 minutes. 5.0 ml of the olive oil-emulsion thus-obtained and 4.0 ml of 0.25M Tris-HCl buffer (pH 8.0, containing 2.5 mM calcium chloride) were preincubated at 37° C. for 10 minutes. One ml of an enzyme solution was added thereto to initiate enzymatic reaction. After the mixture was incubated at 37° C. for 20 minutes, 20 ml of a mixture of acetone-ethanol (1:1) were added to the reaction mixture to stop the enzymatic reaction. The mixture was titrated with 0.05N sodium hydroxide solution by using phenolphthalein as the indicator. A blank solution was prepared in the same manner as above except that acetone-ethanol (1:1) is added to the substrate solution before addition of the enzyme solution. Said blank solution was titrated in the same manner as above. The amount of enzyme which liberated one μmole of fatty acid per minute was defined as one unit (U).
The effect of metal ions or known enzyme-inhibitors on the purified esterase obtained in Example 2 was investigated as follows: […]

3 compounds from US5208156A, “Esterase purified from serratia marcescens SR41 (FERM BP-No. 487)” (priority 1990, dated 1993) can be followed below.

Each structure is given as a SMILES string.

For `O=C(O)c1cc[c]([Hg][Cl])cc1` [p-Chloromercury benzoate], the Relative activity (20 min) is 86%.
On the same count and under the same terms, the result for `O=S(=O)(F)Cc1ccccc1` [Phenylmethylsulfonyl fluoride] reads 100%.
`O=C(O)CN(CCN(CC(=O)O)CC(=O)O)CC(=O)O` [Ethylenediaminetetraacetic acid]: the “Inhibition of esterase activity” value was “completely inhibited”. Moreover, the activity at 1000 µM (20 min, pH 8, read-out: Relative activity) turned out to be 0%.
